A word on the inhibition: it is the share of the control response that was lost under treatment. A higher inhibition goes with a response far below the control.

Here are results for 6 compounds from PMC8876231, “Analogues of Natural Chalcones as Efficient Inhibitors of AKR1C3” (Metabolites, 2022).

SMILES strings stand for the structures.

In one test the target is T1, HSD17B1 (Homo sapiens, UniProt P14061).
T1 construct: GST (own knowledge: pGEX vectors encode N-terminal GST); made in house; host or cells: E. coli BL21 DE3 Codon Plus RP
T1 sequence (P14061 1-328): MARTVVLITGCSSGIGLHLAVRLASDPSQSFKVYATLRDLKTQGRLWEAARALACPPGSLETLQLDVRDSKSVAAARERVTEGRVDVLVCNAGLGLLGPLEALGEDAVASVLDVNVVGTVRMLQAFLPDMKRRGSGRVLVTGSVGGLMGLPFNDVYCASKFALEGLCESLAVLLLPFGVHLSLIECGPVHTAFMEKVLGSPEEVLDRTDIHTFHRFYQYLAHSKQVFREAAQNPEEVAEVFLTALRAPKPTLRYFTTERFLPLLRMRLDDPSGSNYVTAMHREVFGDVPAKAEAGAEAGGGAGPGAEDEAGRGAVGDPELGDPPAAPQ
Kind of test: HSD17B1 inhibition assay (estrone to oestradiol). Type of test: biochemical. The conditions noted are these: 10 µM compound; mean ± SD. The text has this: (§1) For enzymatic assays and inhibitor testing, all enzymes were cloned into bacterial or mammalian expression vectors. AKR1C3 and the human hydroxysteroid dehydrogenases HSD17B1, HSD17B2, HSD17B4 (SDR domain), HSD17B7, and HSD17B10 were cloned into a pGEX vector as described in [71, 72]. The coding sequences for AKR1C1, AKR1C2, and AKR1C4 were cloned by Gateway technology into the pcDNA3-N-MycDest vector according to the manufacturer’s instructions (Life Technologies, Carlsbad, CA, USA). The p11 plasmid coding for HSD17B14 (S205 variant) was a gift from Udo Opperman SGC Oxford, UK. For assays with HSD17B3, HEK293 cells stably expressing HSD17B3 were used. Enzymes were expressed in E. coli BL21 DE3 or E. coli BL21 DE3 Codon Plus RP (Stratagene, San Diego, CA, USA) or in HEK293 cells as described in [71, 72, 73]. Bacterial and cell pellets were stored at −20 °C and −80 °C, respectively, until use.
(§2) Inhibition assays were carried out as described in [71, 74]. […] For a detailed assay setup, see Supplementary Table S6. The incubation at 37 °C was stopped with 0.21 M ascorbic acid in methanol:acetic acid 99:1 (v:v) after the time needed to convert approximately 30% of the substrate in a control assay with 1% DMSO, without inhibitor candidate. Substrates and products were extracted from the reaction mixture by solid-phase extraction using C18 cartridges (Phenomenex, Aschaffenburg, Germany) and separated by RP–HPLC in a Beckman–Coulter HPLC Gold system, using the Luna 5 µm C18(2), 125 × 4.0 mm column (Phenomenex). The mobile phases used were H2O:ACN (57:43 (v:v); for assays of estrone (E1) to oestradiol (E2), E2 to E1, and ∆4-androstene-3,17-dione to testosterone conversion), H2O:ACN (49:51 (v:v); for assays of progesterone to 20α-hydroxyprogesterone conversion), and H2O:MeOH (35:65 (v:v) for assays of dihydrotestosterone (DHT) to 3α-androstanediol conversion) at a flow rate of 1 mL/min. Radioactivity was detected by online scintillation counting by using a radioactivity monitor (LB506D, Berthold Technologies, Bad Wildbad, Germany). Conversion of substrates to products was determined by integration of the peak area of the substrate and product peaks in percent. For calculation of inhibition, the conversion of control assay (assay without inhibitor) was set to 0% inhibition. All assays were run in triplicates, and mean values ± SD are reported.
(§3) Table S6: Activity assay setup […]
(§4) E1: estrone; E2: 17β-estradiol, A: Δ4-androstene-3,17-dione; T: testosterone, P: progesterone, 20αOHP: 20α-hydroxyprogesterone, DHT: dihydrotestosterone, 3α-Adiol: 3α-androstanediol, NaPi: 100 mM Na-phosphate buffer; PI: C0mplete protease inhibitor (Roche);. E.coli - Expression in E.coli BL21 DE3 Codon Plus RP except E.coli BL21 DE3 […]
(§5) application to antiparasitic and natural product synthesis. Eur J Org Chem […]
(§6) Synthesis of Xanthohumol analogues and discovery of potent thioredoxin reductase inhibitor as potential anticancer agent. J Med Chem 2015, 58,

Another test has as its target T2, HSD17B14 (Homo sapiens, UniProt Q9BPX1, T205S).
T2 construct: His6 (own knowledge: the SGC p11 vector encodes an N-terminal His tag with TEV site); made in house; host or cells: E. coli BL21 DE3
T2 sequence (Q9BPX1 1-270 T205S): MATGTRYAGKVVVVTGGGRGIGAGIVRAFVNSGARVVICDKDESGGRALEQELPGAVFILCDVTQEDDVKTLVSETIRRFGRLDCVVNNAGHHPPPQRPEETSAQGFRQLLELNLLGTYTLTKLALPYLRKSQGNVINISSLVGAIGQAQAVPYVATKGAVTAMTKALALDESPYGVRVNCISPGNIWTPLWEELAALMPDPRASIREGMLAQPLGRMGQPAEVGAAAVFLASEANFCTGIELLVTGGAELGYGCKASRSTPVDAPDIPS
The experiment in a line: HSD17B14 (S205 variant) inhibition assay (oestradiol to estrone). The conditions noted are these: 10 µM compound; mean ± SD. Type of test: biochemical.
Description: as §1, §2, §3, §4, §5, §6

Take `COc1ccc(/C=C/C(=O)c2c(O)cc(O)cc2OC)cc1` [Compound 18]: the “Inhibition of HSD17B1 at 10 µM in %” value on HSD17B1 is recorded as 46.5 ± 8.8%. The “Inhibition of HSD17B14 at 10 µM in %” value at HSD17B14 was determined as 24.9 ± 8.1%.
Taken in the same sequence, the figures for `COc1ccc(/C=C/C(=O)c2c(O)cc(O)cc2O)cc1` [Compound 19] were 42.3 ± 5.3% and 1.8 ± 7.7%.
For `Cc1cccc(/C=C/C(=O)c2c(O)cc(O)cc2O)c1` [Compound 20], the “Inhibition of HSD17B1 at 10 µM in %” value on HSD17B1 is 51.8 ± 5.1%. The “Inhibition of HSD17B14 at 10 µM in %” value on HSD17B14 is on record as 18.5 ± 9.3%.
For the compound `Cc1ccc(/C=C/C(=O)c2c(O)cc(O)cc2O)cc1` [Compound 21], at HSD17B1, the “Inhibition of HSD17B1 at 10 µM in %” value is 42.8 ± 9.1%. On HSD17B14, the “Inhibition of HSD17B14 at 10 µM in %” value is recorded as -8.0 ± 2.3%.
`O=C(/C=C/c1ccc(Cl)cc1Cl)c1c(O)cc(O)cc1O` [Compound 23, 2,4-dichloro-2′,4′,6′-trihydroxychalcone]: the inhibition at 10 µM turned out to be 53.3% against HSD17B1 and 13.9 ± 2.7% against HSD17B14.
For the compound `COc1cc(O)cc(O)c1C(=O)/C=C/c1ccc(Cl)cc1Cl` [Compound 25], the “Inhibition of HSD17B14 at 10 µM in %” value on HSD17B14 is -3.2 ± 6.3%.
